Source: US10077463B2, “Optical selection of cells” (President and Fellows of Harvard College, priority 2015, dated 2018)

Columns and labels:
rat hippocampal neurons = assay: Photostick of a single neuron chosen by Optopatch firing pattern; format: cell-based; conditions: 15 μM, 407 nm light 2200 J/cm^2, ACCUTASE 6 min 37° C.
MDCK cells [1] = assay: Cell entry by high magnification fluorescence imaging; format: cell-based, Canine; conditions: 4 μM, fluorescence localized to the cell membrane
MDCK cells [2] = format: cell-based; conditions: 4 μM, 407 nm light 825 J/cm^2
MDCK cells [3] = assay: Photostick of MDCK cells (violet light crosslinking, ACCUTASE development); format: cell-based, Canine

CC[N+]1=C(/C=C/C=C2/N(CCCCCC(=O)NCCNC(=O)CCSSCCNC(=O)C(CCCCNC(=O)CCCCC3SCC4NC(=O)NC43)NC(=O)c3ccc(N=[N+]=N)cc3)c3ccc(S(=O)(=O)O)cc3C2(C)C)C(C)(C)c2cc(S(=O)(=O)O)ccc21 (stereo not drawn) [Cy3-SBED]
Retention of selected neuron after ACCUTASE (in words) (rat hippocampal neurons): the selected neuron remained
Entry into cells (intracellular fluorescence) (MDCK cells [1]): did not enter the cells
Cell doubling time post-photostick (MDCK cells [2]): 34 h
Cells in the dark region removed (MDCK cells [3]): 99.96%
Cells within the illuminated region retained (photostuck cells remained) (MDCK cells [3]): 98.7%
Non-photostuck cells remained (MDCK cells [3]): 0.04%
